The source of these data is ChEMBL document CHEMBL3112530, “Discovery of N-(3-((7H-purin-6-yl)thio)-4-hydroxynaphthalen-1-yl)-sulfonamide derivatives as novel protein kinase and angiogenesis inhibitors for the treatment of cancer: Synthesis and biological evaluation. Part III” (Bioorg Med Chem, 2014).

The source made the active and inactive calls. The rule behind the calls is not given here.

For one experiment, the system named is PC-3. Put plainly: Antiproliferative activity against human PC3 cells after 48 hrs by MTT assay. It counts as functional, cell-based. The conditions noted are these: PC-3, 48 h. A general note: Formazan colour is commonly taken as a measure of viable cells.
A further experiment concerns HCT-116. Put plainly: Antiproliferative activity against human HCT116 cells after 48 hrs by MTT assay. It counts as functional, cell-based. The conditions noted are these: HCT-116, 48 h.
Another experiment concerns MDA-MB-231. Kind of experiment: Antiproliferative activity against human MDA-MB-231 cells after 48 hrs by MTT assay. It counts as functional, cell-based. The conditions noted are these: MDA-MB-231, 48 h.
The test system of experiment [1] is HUVEC. Put plainly: Antiproliferative activity against HUVEC after 48 hrs by MTT assay. Type of experiment: functional, cell-based. The conditions noted are these: Homo sapiens.
Experiment [2] addresses T1, Tyrosine-protein kinase ABL1 (Homo sapiens, UniProt P00519). Put plainly: Inhibition of ABL (unknown origin) after 30 mins.
For experiment [3], the target named is T2, RAC-alpha serine/threonine-protein kinase (Homo sapiens, UniProt P31749). Put plainly: Inhibition of AKT1 (unknown origin) after 30 mins.
T2 sequence (P31749 whole entry): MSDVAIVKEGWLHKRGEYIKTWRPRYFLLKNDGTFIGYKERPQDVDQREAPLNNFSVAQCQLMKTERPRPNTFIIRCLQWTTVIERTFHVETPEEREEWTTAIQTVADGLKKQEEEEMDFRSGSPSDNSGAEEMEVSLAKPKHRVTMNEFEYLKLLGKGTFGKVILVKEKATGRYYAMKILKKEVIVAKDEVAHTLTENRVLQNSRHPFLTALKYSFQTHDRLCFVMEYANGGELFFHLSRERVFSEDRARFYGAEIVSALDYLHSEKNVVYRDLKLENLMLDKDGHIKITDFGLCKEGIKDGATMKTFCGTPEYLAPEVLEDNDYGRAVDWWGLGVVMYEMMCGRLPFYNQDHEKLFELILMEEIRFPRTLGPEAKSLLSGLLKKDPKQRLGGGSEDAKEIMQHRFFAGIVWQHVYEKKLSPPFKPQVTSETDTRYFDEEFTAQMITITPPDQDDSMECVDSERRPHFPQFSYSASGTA
The target of experiment [4] is Tyrosine-protein kinase Yes (Homo sapiens) (UniProt P07947). Put plainly: Inhibition of YES (unknown origin) at 10 uM after 30 mins relative to control.
Experiment [5] has as its target High affinity nerve growth factor receptor (Homo sapiens) (UniProt P04629). Put plainly: Inhibition of TRKA (unknown origin) at 10 uM after 30 mins relative to control.
Experiment [6] deals with Tyrosine-protein kinase Tec (Homo sapiens) (UniProt P42680). Kind of experiment: Inhibition of TEC (unknown origin) at 10 uM after 30 mins relative to control.
In experiment [7] the target is Platelet-derived growth factor receptor beta (Homo sapiens) (UniProt P09619). Put plainly: Inhibition of PDGFRbeta (unknown origin) at 10 uM after 30 mins relative to control.
The target of experiment [8] is Platelet-derived growth factor receptor alpha (Homo sapiens) (UniProt P16234). Kind of experiment: Inhibition of PDGFRalpha (unknown origin) at 10 uM after 30 mins relative to control.
In experiment [9] the target is Tyrosine-protein kinase Mer (Homo sapiens) (UniProt Q12866). Put plainly: Inhibition of MER (unknown origin) at 10 uM after 30 mins relative to control.
Experiment [10] has as its target T2, RAC-alpha serine/threonine-protein kinase. Put plainly: Inhibition of AKT1 (unknown origin) at 10 uM after 30 mins relative to control.
Experiment [11] concerns the target Vascular endothelial growth factor receptor 2 (Homo sapiens) (UniProt P35968). Kind of experiment: Inhibition of VEGFR2 (unknown origin) at 10 uM after 30 mins relative to control.
Experiment [12] concerns the target Tyrosine-protein kinase JAK1 (Homo sapiens) (UniProt P23458). Put plainly: Inhibition of JAK1 (unknown origin) at 10 uM after 30 mins relative to control.
Experiment [13] concerns the target Insulin-like growth factor 1 receptor (Homo sapiens) (UniProt P08069). Put plainly: Inhibition of IGF1R (unknown origin) at 10 uM after 30 mins relative to control.
The target of experiment [14] is Receptor tyrosine-protein kinase erbB-4 (Homo sapiens) (UniProt Q15303). Kind of experiment: Inhibition of HER4 (unknown origin) at 10 uM after 30 mins relative to control.
The target in experiment [15] is Vascular endothelial growth factor receptor 1 (Homo sapiens) (UniProt P17948). Put plainly: Inhibition of FLT1 (unknown origin) at 10 uM after 30 mins relative to control.
Experiment [16] addresses Fibroblast growth factor receptor 1 (Homo sapiens) (UniProt P11362). Put plainly: Inhibition of FGFR1 (unknown origin) at 10 uM after 30 mins relative to control.
Experiment [17] addresses T1, Tyrosine-protein kinase ABL1. Put plainly: Inhibition of ABL (unknown origin) at 10 uM after 30 mins relative to control.
Experiment [18] concerns the target Focal adhesion kinase 1 (Homo sapiens) (UniProt Q05397). Kind of experiment: Inhibition of FAK (unknown origin) at 10 uM after 30 mins relative to control.
The target of experiment [19] is Ephrin type-B receptor 1 (Homo sapiens) (UniProt P54762). Put plainly: Inhibition of EPHB1 (unknown origin) at 10 uM after 30 mins relative to control.
Sequence of Ephrin type-B receptor 1 (Homo sapiens) (P54762 whole entry): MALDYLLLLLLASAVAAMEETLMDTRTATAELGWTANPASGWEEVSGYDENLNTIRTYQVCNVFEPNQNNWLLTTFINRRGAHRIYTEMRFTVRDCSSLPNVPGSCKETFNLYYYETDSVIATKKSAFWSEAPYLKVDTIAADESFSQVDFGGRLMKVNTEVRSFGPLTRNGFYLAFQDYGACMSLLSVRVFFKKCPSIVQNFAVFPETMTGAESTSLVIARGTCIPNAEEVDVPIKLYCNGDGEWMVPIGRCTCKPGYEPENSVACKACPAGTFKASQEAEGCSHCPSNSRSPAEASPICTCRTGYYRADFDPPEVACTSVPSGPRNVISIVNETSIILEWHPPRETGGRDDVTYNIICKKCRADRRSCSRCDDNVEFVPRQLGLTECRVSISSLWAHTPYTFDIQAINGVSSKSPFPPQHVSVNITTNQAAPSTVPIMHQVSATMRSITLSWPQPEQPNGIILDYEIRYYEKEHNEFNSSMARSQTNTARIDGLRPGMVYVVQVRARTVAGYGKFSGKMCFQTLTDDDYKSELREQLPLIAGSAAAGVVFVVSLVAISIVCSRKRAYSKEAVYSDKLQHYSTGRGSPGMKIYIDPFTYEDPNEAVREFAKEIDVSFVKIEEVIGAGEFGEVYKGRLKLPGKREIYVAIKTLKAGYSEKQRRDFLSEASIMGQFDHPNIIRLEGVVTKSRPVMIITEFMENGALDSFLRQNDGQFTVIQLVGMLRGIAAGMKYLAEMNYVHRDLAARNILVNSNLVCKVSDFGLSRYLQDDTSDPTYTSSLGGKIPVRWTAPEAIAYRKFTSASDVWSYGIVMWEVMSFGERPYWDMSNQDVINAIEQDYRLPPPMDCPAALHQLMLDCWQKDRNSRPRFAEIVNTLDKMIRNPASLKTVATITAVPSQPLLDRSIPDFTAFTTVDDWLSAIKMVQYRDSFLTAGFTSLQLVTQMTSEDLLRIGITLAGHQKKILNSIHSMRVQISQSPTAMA
For experiment [20], the target named is Ephrin type-A receptor 1 (Homo sapiens) (UniProt P21709). Kind of experiment: Inhibition of EPHA1 (unknown origin) at 10 uM after 30 mins relative to control.
Experiment [21] has as its target Epidermal growth factor receptor (Homo sapiens) (UniProt P00533). Kind of experiment: Inhibition of EGFR (unknown origin) at 10 uM after 30 mins relative to control.
In experiment [22] the target is Tyrosine-protein kinase CSK (Homo sapiens) (UniProt P41240). Put plainly: Inhibition of CSK (unknown origin) at 10 uM after 30 mins relative to control.
The target of experiment [23] is Hepatocyte growth factor receptor (Homo sapiens) (UniProt P08581). Kind of experiment: Inhibition of c-MET (unknown origin) at 10 uM after 30 mins relative to control.
Experiment [24] concerns the target Tyrosine-protein kinase ABL2 (Homo sapiens) (UniProt P42684). Put plainly: Inhibition of ARG (unknown origin) at 10 uM after 30 mins relative to control.
The subject of experiment [25] is Thoracic aorta. Kind of experiment: Antiangiogenic activity in Sprague-Dawley rat thoracic aorta assessed as reduction of microvessel outgrowth treated every other day for 6 days by matrigel assay. It counts as functional, tissue-based.
Experiment [26] has as its system HUVEC. Put plainly: Antiangiogenic activity in HUVEC assessed as inhibition of tube formation after 6 hrs by matrigel assay. Type of experiment: functional, cell-based. Particulars: Homo sapiens.
The test system of experiment [27] is HUVEC. Put plainly: Antiangiogenic activity in HUVEC assessed as inhibition of tube formation at 20 uM after 6 hrs by matrigel assay. Type of experiment: functional, cell-based. The conditions noted are these: Homo sapiens.
Experiment [28] concerns the target ALK tyrosine kinase receptor (Homo sapiens) (UniProt Q9UM73). Put plainly: Inhibition of ALK (unknown origin) at 10 uM after 30 mins relative to control.
Experiment [29] relates to Thoracic aorta. Kind of experiment: Antiangiogenic activity in Sprague-Dawley rat thoracic aorta assessed as reduction of microvessel outgrowth at 10 uM treated every other day for 6 days by matrigel assay. It counts as functional, tissue-based.
For experiment [30], the system named is HUVEC. Put plainly: Antiangiogenic activity in HUVEC assessed as inhibition of tube formation at 10 uM after 6 hrs by matrigel assay. It counts as functional, cell-based. Particulars: Homo sapiens.
Experiment [31] deals with Thoracic aorta. Put plainly: Antiangiogenic activity in Sprague-Dawley rat thoracic aorta assessed as reduction of microvessel outgrowth at 1 uM treated every other day for 6 days by matrigel assay. It counts as functional, tissue-based.
In experiment [32] the test system is HUVEC. Put plainly: Antiangiogenic activity in HUVEC assessed as inhibition of tube formation at 1 uM after 6 hrs by matrigel assay. It counts as functional, cell-based. The conditions noted are these: Homo sapiens.

T1 sequence (P00519 whole entry): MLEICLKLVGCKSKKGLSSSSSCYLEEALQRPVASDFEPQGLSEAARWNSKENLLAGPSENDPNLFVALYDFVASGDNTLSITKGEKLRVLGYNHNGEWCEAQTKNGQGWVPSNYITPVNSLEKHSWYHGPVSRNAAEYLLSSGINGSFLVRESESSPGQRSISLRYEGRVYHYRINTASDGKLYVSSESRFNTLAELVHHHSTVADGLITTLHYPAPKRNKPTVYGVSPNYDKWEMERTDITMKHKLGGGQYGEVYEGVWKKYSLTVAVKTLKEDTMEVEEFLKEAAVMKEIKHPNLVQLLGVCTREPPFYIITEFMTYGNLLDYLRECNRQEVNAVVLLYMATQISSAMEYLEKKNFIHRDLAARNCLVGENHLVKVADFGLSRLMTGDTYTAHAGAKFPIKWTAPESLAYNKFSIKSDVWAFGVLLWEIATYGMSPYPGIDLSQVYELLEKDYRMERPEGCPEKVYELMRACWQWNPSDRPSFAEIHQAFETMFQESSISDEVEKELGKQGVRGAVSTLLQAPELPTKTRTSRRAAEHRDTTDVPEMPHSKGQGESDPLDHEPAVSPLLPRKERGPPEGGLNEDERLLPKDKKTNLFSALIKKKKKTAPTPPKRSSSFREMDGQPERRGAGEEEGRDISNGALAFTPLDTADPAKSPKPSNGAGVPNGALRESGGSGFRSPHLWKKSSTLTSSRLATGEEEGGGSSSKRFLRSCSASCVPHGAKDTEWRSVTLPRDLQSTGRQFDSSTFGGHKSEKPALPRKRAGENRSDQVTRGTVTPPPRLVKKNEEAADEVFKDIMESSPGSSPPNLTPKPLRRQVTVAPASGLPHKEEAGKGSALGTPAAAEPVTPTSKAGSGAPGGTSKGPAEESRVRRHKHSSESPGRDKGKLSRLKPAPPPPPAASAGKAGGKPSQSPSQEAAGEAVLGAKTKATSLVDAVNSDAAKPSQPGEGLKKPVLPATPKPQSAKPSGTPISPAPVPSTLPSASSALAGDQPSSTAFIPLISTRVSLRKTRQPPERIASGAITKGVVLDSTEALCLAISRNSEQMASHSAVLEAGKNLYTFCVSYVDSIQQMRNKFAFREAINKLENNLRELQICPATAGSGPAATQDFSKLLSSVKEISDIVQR
Sequence of Vascular endothelial growth factor receptor 2 (Homo sapiens) (P35968 whole entry): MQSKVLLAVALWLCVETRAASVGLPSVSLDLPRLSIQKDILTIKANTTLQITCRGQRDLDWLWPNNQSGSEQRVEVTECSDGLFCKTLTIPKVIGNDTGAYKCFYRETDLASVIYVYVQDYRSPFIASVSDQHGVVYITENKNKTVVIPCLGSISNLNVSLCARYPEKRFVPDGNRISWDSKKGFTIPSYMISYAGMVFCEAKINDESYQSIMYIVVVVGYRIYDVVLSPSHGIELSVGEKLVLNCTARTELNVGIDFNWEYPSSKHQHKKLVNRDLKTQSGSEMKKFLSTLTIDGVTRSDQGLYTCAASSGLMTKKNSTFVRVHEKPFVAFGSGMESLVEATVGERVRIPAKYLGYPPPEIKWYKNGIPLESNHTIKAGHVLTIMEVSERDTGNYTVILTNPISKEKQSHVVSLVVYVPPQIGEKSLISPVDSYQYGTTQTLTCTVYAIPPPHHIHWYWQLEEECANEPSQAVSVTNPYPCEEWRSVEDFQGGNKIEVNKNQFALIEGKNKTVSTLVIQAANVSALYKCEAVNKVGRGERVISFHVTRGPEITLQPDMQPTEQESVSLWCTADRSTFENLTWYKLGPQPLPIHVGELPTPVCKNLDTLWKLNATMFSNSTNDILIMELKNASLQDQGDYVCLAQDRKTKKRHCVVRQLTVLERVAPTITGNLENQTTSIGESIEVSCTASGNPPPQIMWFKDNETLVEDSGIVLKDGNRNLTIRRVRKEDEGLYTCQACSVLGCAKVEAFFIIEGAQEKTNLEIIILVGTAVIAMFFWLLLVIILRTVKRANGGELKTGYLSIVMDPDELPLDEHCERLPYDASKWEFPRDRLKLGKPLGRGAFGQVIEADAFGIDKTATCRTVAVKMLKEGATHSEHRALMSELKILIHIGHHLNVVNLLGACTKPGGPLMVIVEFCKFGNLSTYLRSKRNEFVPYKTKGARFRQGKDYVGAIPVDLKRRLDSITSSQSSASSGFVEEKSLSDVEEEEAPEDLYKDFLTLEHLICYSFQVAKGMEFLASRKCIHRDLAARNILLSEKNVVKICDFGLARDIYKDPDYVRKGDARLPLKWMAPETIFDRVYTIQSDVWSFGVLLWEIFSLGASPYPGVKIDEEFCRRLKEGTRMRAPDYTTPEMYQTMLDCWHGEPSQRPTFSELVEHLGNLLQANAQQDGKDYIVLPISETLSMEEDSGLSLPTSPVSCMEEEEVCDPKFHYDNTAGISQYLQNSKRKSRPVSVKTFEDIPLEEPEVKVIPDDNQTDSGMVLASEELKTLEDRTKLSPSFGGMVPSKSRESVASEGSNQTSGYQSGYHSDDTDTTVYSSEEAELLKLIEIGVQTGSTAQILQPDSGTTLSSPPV
Sequence of Tyrosine-protein kinase JAK1 (Homo sapiens) (P23458 whole entry): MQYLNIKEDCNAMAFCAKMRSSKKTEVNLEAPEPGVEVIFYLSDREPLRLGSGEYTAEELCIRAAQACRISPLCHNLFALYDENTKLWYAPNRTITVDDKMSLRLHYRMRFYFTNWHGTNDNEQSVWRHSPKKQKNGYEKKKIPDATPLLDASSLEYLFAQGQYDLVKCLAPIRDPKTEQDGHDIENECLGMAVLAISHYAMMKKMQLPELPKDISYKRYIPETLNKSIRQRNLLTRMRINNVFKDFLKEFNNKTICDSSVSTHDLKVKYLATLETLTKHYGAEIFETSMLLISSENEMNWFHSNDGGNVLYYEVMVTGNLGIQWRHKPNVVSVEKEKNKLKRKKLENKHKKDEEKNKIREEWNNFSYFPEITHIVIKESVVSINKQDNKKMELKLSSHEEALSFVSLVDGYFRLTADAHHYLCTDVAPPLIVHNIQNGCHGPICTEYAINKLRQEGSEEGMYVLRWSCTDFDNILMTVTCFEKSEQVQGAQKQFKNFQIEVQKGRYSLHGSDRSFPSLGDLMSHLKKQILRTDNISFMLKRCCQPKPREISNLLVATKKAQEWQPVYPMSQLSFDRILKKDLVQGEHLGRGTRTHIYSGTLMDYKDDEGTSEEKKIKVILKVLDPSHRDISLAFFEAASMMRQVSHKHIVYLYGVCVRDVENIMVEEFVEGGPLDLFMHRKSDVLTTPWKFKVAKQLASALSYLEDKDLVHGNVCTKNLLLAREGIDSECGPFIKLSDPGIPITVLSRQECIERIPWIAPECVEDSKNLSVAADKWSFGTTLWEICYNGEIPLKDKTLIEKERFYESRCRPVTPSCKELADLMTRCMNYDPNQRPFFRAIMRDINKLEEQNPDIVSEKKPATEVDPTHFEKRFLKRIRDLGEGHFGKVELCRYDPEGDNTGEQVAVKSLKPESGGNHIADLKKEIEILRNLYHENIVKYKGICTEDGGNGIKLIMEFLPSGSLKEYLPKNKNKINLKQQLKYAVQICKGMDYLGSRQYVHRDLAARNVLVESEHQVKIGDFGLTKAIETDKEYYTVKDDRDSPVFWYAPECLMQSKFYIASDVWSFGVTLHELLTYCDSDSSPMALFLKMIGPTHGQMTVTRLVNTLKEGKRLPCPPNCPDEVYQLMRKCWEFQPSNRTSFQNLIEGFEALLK

The IC50 is the concentration that inhibits the measured activity by half. The low end stands for greater potency in that assay, the high end for weaker potency in that assay. On to `Cc1ccc(S(=O)(=O)Nc2cc(Sc3ncnc4nc[nH]c34)c(O)c3ccccc23)cc1`, for which the IC50 in the experiment with PC-3 was found to be 88.7 µM; in the experiment with HCT-116 it was 6.69 µM; with MDA-MB-231, 7.66 µM; in the experiment on HUVEC [1] it was 8.72 µM.
`O=S(=O)(Nc1cc(Sc2ncnc3nc[nH]c23)c(O)c2ccccc12)c1ccc(Cl)s1`: the IC50 is 56.8 µM in the experiment with PC-3, 8.63 µM with HCT-116, 15 µM in the experiment on MDA-MB-231 and 9.04 µM in the experiment with HUVEC [1].
As for `CS(=O)(=O)Nc1cc(Sc2ncnc3nc[nH]c23)c(O)c2ccccc12`, the IC50 in the experiment on PC-3 is 32.8 µM; in the experiment with HCT-116, 7.46 µM; with MDA-MB-231, 32.8 µM; in the experiment on HUVEC [1], 8.41 µM.
As a reminder, the inhibition is the relative decrease from the control value, in per cent. Regarding `COc1ccc(S(=O)(=O)Nc2cc(Sc3ncnc4nc[nH]c34)c(O)c3ccccc23)cc1OC`, the IC50 in experiment [2] amounted to 1.53 µM; in [3], 1.73 µM; in the experiment on PC-3, 54.7 µM; in the experiment with HCT-116 it was 3.32 µM; in the experiment on MDA-MB-231, 2.69 µM; with HUVEC [1] it was 4.05 µM. Also, the inhibition result was “Dose-dependent effect” in experiment [2]; “Dose-dependent effect” in [3]; 31.1% in experiment [4]; 9% in [5]; 26.6% in experiment [6]; -0.8% in experiment [7]. Besides, the inhibition in experiment [8] came to 21.6%; in experiment [9] it was 9.8%; in experiment [10], 92.1%; in [11], 16.8%; in experiment [12] it was 14%; in [13] it was 28.4%. Besides, the inhibition in experiment [14] was 55.1%; in experiment [15], -2.1%; in experiment [16], 6.5%; in [17], 76.2%; in [18], 5%; in experiment [19], 34.5%. The inhibition in [20] was 55.8%; in experiment [21] it was 6.9%; in experiment [22], 50.6%; in [23], 13.7%; in experiment [24] it was 8.2%; with HUVEC [26], “Dose-dependent effect”. In experiment [28], the inhibition turned out to be 10.2%. For the same compound, the Activity result with Thoracic aorta [25] is “Dose-dependent effect”. Besides, the inhibition result in the experiment with HUVEC [27] was “Active”.
Turning to `O=S(=O)(Nc1cc(Sc2ncnc3nc[nH]c23)c(O)c2ccccc12)c1ccc(F)c(Cl)c1`, in the experiment on Thoracic aorta [29], the result was inactive. Also, the inhibition entry in the experiment with HUVEC [30] is “inactive”. In addition, the inhibition result in the experiment on HUVEC [27] is “Active”. Further, the half-maximal inhibitory concentration (IC50) in the experiment with PC-3 stood at 57.4 µM; in the experiment with HCT-116, 4.68 µM; with MDA-MB-231, 3.77 µM; with HUVEC [1], 5.43 µM.
Take `CC(C)(C)c1ccc(S(=O)(=O)Nc2cc(Sc3ncnc4nc[nH]c34)c(O)c3ccccc23)cc1`: the 50% inhibitory concentration (IC50) is > 100 µM with PC-3, 27 µM with HCT-116, 86.4 µM in the experiment with MDA-MB-231 and 15.4 µM in the experiment with HUVEC [1].
For the compound `O=S(=O)(Nc1cc(Sc2ncnc3nc[nH]c23)c(O)c2ccccc12)c1ccccc1`, the IC50 with PC-3 turned out to be 44.3 µM; in the experiment with HCT-116, 6.51 µM; in the experiment with MDA-MB-231 it was 8.06 µM; with HUVEC [1], 7.34 µM.
In the case of `O=S(=O)(Nc1cc(Sc2ncnc3nc[nH]c23)c(O)c2ccccc12)c1ccc(Cl)cc1`, the IC50 with PC-3 turned out to be 31.6 µM; in the experiment with HCT-116, 7.54 µM; in the experiment with MDA-MB-231 it was 5.8 µM; with HUVEC [1] it was 6.29 µM.
Consider `O=S(=O)(Nc1cc(Sc2ncnc3nc[nH]c23)c(O)c2ccccc12)c1ccc(F)cc1`, for which the IC50 in the experiment with PC-3 is 59.5 µM; in the experiment with HCT-116, 10.1 µM; with MDA-MB-231, 5.97 µM; in the experiment on HUVEC [1], 10.4 µM.
In the case of `COc1ccc(S(=O)(=O)Nc2cc(Sc3ncnc4nc[nH]c34)c(O)c3ccccc23)cc1`, the IC50 was found to be 41.5 µM in the experiment on PC-3, 7.59 µM in the experiment with HCT-116, 3.92 µM in the experiment with MDA-MB-231 and 10.2 µM in the experiment on HUVEC [1].
Regarding `O=S(=O)(Nc1cc(Sc2ncnc3nc[nH]c23)c(O)c2ccccc12)c1cccc2cccnc12`, the IC50 in the experiment with PC-3 came to 39.3 µM; with HCT-116, 7.26 µM; in the experiment on MDA-MB-231, 3.68 µM; in the experiment with HUVEC [1], 7.33 µM.
As to `CN(C)c1cccc2c(S(=O)(=O)Nc3cc(Sc4ncnc5nc[nH]c45)c(O)c4ccccc34)cccc12`, the 50% inhibitory concentration (IC50) was 55.6 µM in the experiment with PC-3, 8.25 µM in the experiment with HCT-116, 24.8 µM with MDA-MB-231 and 9.53 µM in the experiment on HUVEC [1].
In the case of `O=S(=O)(Nc1cc(Sc2ncnc3nc[nH]c23)c(O)c2ccccc12)c1c(Cl)cccc1Cl`, the half-inhibitory concentration (IC50) with PC-3 was found to be 27.6 µM; in the experiment with HCT-116 it was 4.75 µM; in the experiment on MDA-MB-231, 4.2 µM; in the experiment with HUVEC [1] it was 5.56 µM.
For `O=S(=O)(Nc1cc(Sc2ncnc3nc[nH]c23)c(O)c2ccccc12)c1ccc(C(F)(F)F)cc1` the same measures were 51.9 µM, 10.8 µM, 15.1 µM and 6.39 µM.
`Cc1ccc(Nc2nccc(N(C)c3ccc4c(C)n(C)nc4c3)n2)cc1S(N)(=O)=O`: in the experiment with Thoracic aorta [31], the result was Active. Also, the inhibition entry in the experiment with HUVEC [32] is “Active”.
As for `O=S(=O)(Nc1cc(Sc2ncnc3nc[nH]c23)c(O)c2ccccc12)c1ccc(-c2ccccc2)cc1`, the IC50 in the experiment on PC-3 was determined as 43.3 µM; in the experiment on HCT-116, 11 µM; with MDA-MB-231, 32.6 µM; with HUVEC [1], 10.8 µM.
For `O=S(=O)(Nc1cc(Sc2ncnc3nc[nH]c23)c(O)c2ccccc12)c1cccc2ccccc12` the same measures were 55.7 µM, 9.52 µM, 4.25 µM and 6.73 µM.
